# PMC6359039, “Pharmacokinetics, Tissue Distribution, Plasma Protein Binding Studies of 10-Dehydroxyl-12-Demethoxy-Conophylline, a Novel Anti-Tumor Candidate, in Rats” (Molecules, 2019)
# Entries after “also recorded” stand apart in the source; their conditions may differ. Where two headings read alike, the source gives them in different places.
# Experiments:
# [1] = Plasma pharmacokinetics in rats after i.v. and i.g. dosing (UPLC-FLR); format: in vivo, Sprague Dawley rats; design: CL: unit not given here; conditions: rat; for MRT: Sprague-Dawley; for pharmacokinetic model fit: plasma concentration–time data, DAS 2.0
# Method: Sprague Dawley rats (half male and female) with a body mass 180–220 g were provided by the Laboratory Animal Center of Medical University of Anhui (Hefei, China), Certificate number: SCXK(wan) 2015-002. Animals were housed under controlled conditions (temperature 22 ± 2 °C, humidity 50% ± 5%, 12 h dark/light cycle) with standardized diet and acclimatized for 7 days, prior to the experiments. All protocols and care of the rats were performed in strict compliance with the Guidelines for the Use of Laboratory Animals (National Research Council) and authorized by the Animal Care and Use Committee of Anhui University of Chinese Medicine.
# (§1) Chromatographic separation was performed using a UPLC system (Waters ACQUITY-CLASS. US) with an analytical column Kinetex (C18, 1.7 μm, 2.1 mm × 100 mm; Phenomenex; California; CA, USA) at 25 °C. Water and methanol (75:25) were used as the isocratic elution, running at a flow rate of 0.2 mL/min. The detector was used with fluorescence (FLR) detection with a fluorescence excitation wavelength of 330 nm and a fluorescence emission wavelength of 439 nm.
# The rat intravenous doses were determined as 4, 8, and 12 mg/kg, and the intragastric administration dose was 20 mg/kg. These were selected to investigate whether the pharmacokinetics of the drug was linear over the range of doses used. In all, 18 (SD) rats (half male and female) were randomly divided into three groups, namely, high-, medium- and low-dose groups. The rats fasted 12 h be before the administration of 10-dehydroxyl-12-demethoxy-conophylline but with free access to water. 10-dehydroxyl-12-demethoxy-conophylline was dissolved in normal saline and added with 5% ethanol. Amounts of 4, 8, and 12 mg/kg (0.5 mL/100 g) were injected into the tail vein of the rat, and 0.3 mL of blood was taken from the eyelid before administration (0 min) and 2, 5, 15, 30, 60, 90, 120, 180, 240, and 300 min after intravenous administration. Another 6 rats (half male and female) were administered an intragastrical (i.g.) dose of 20 mg/kg. Blood samples (0.3 mL) were collected by retro-orbital bleeding into heparinized 1.5mL tubes before administration (0 min) and 15, 30, 60, 90, 120, 240, 480, and 600 min after intragastric administration. Immediately after collection, the blood samples were centrifuged at 3500 rpm for 10 min to obtain plasma, and originating supernatants were also stored at −70 °C until analysis.
# Plasma samples (90 μL) were spiked with 10 μL internal standard (100 ng/mL) and extracted with 300 μL of methanol by vortexing for 10 min. The plasma and aqueous phases were separated by centrifugation at 14,000 rpm for 10 min. The supernatants were transferred to another tube and evaporated to dryness at 50 °C. The residue was dissolved in 100 μL methanol and vortexed. A 2 μL aliquot of the solution was injected into the UPLC system for analysis.
# The pharmacokinetic parameters were calculated using the pharmacokinetic software DAS 2.0 (Chinese Pharmacological Association, Beijing, China) by non-compartmental and compartmental analysis method. The elimination half-life (t1/2) was determined by linear regression of the terminal portion (last the points) of the plasma concentration–time curve. The area under the plasma concentration–time curve from zero to the last measurable plasma concentration point (AUC0-t) was calculated using the linear trapezoidal method. Extrapolation from time zero to infinity (AUC0-∞) was calculated as follows:AUC0-∞ = AUC0-t + Ct/ke,(2) where Ct is the last measurable plasma concentration and ke is the terminal elimination rate constant. […]
# [2] = Tissue distribution in rats after a single i.v. dose; format: in vivo, Sprague Dawley rats; conditions: rat, single i.v. dose 8 mg/kg
# Method: as §1
# For the tissue concentration study of 10-dehydroxyl-12-demethoxy-conophylline, 18 (SD) rats (half male and female) were randomly divided into three groups. The rats were administered intravenously at a dose of 8 mg/kg of 10-dehydroxyl-12-demethoxy-conophylline, and the rats were euthanized at 5, 20, and 45 min after administration. Samples of their tissues and blood were carefully collected and washed with sodium phosphate buffer (pH 7.4) to remove blood. Each tissue (0.2 g) was homogenized in normal saline (1 mL). Subsequently, an amount 120 μL of the homogenate was pipetted into 480 μL of methanol and vortexed for 3 min, and then centrifuged at 14,000 rpm for 10 min. The supernatant was then centrifuged again at 14,000 rpm for 10 min and stored at −70 °C until analysis. The preparation process for analysis was the same as described above for plasma.
# [3] = Plasma protein binding by equilibrium dialysis, rat plasma; format: in vitro ADME; conditions: Sprague Dawley
# Method: (§2) Protein binding was determined in vitro by equilibrium dialysis of plasma of rats or human serum albumin. Blank dialysate, internal dialysate, and external dialysate were prepared separately. The internal dialysate was prepared by taking 0.4 mL of blank plasma and adding 100 μL of the 10-dehydroxyl-12-demethoxy-conophylline series standard solution to prepare the equivalent of 10-dehydroxyl-12-demethoxy-conophylline plasma concentrations of 0.078, 0.156, 0.312, 0.625, 1.250, 2.500, 5.000, and 20.000 μg/mL simulating biological samples. The external dialysate was prepared by taking 0.4 mL of blank dialysate and adding 100 μL of the 10-dehydroxyl-12-demethoxy-conophylline series standard solution to prepare the equivalent of 10-dehydroxyl-12-demethoxyconophylline plasma concentrations of […] simulating dialysate samples. The protein binding rate of 10-dehydroxyl-12-demethoxy-conophylline in plasma was measured using the equilibrium dialysis method in this experiment. The concentration of unbound compound (B) and bound compound to protein (A) were calculated as follows:F = (A − B)/A,(1) where F is the bounded fraction, A is the compound concentration in the plasma compartment, and B is the concentration of the compound in the phosphate buffer compartment.
# [4] = Plasma protein binding by equilibrium dialysis, human plasma; format: in vitro ADME; conditions: read-out: protein binding degree (converted)
# Method: as §2
# [5] = system: HL-60; design: method as in PMID 29772302; conditions: cited from earlier work
# [6] = system: SMMC-7721; design: method as in PMID 29772302; conditions: cited from earlier work
# [7] = system: A-549; design: method as in PMID 29772302; conditions: cited from earlier work
# [8] = system: MCF-7; design: method as in PMID 29772302; conditions: cited from earlier work
# [9] = system: SW480; design: method as in PMID 29772302; conditions: cited from earlier work
# [10] = both sexes, Sprague Dawley, plasma, iv, 4 mg/kg i.v., mean ± SD, n = 6
# [11] = both sexes, Sprague Dawley, plasma, iv, 8 mg/kg i.v., mean ± SD, n = 6
# [12] = both sexes, Sprague Dawley, plasma, iv, 12 mg/kg i.v., mean ± SD, n = 6
# [13] = both sexes, Sprague Dawley, plasma, po, 20 mg/kg i.g., mean ± SD, n = 6
# [14] = 12 mg/kg i.v., mean ± SD, n = 6
# [15] = 20 mg/kg i.g., mean ± SD, n = 6
smiles,measurement,setting,value
"CC[C@@]12CC(C(=O)OC)=C3Nc4cc5c(cc4[C@@]34CCN(C[C@H]3O[C@H]31)[C@@H]24)[C@@H]1C(O5)[C@@H](O)[C@@]2(CC)CC(C(=O)OC)=C3Nc4cc(OC)ccc4[C@@]34CCN1[C@@H]24 (stereo partly shown) [10-dehydroxyl-12-demethoxy-conophylline, 10-Dehydroxyl-12-demethoxy-conophylline]",AUC(0-inf),"[1]; both sexes, Sprague Dawley, plasma, iv, 4 mg/kg i.v.",1140 ng·h/mL
same,AUC(0-t),[1]; [10],988 ng·h/mL
same,clearance,[1]; [10],41 ± 70 mL/min/kg
same,AUC(0-inf),[1]; [11],2190 ng·h/mL
same,AUC(0-t),[1]; [11],2150 ng·h/mL
same,clearance,[1]; [11],39 ± 120 mL/min/kg
same,AUC(0-inf),"[1]; both sexes, Sprague Dawley, plasma, iv, 12 mg/kg i.v.",5090 ng·h/mL
same,AUC(0-t),[1]; [12],3910 ng·h/mL
same,clearance,[1]; [12],41 ± 50 mL/min/kg
same,bioavailability,"[1]; both sexes, Sprague Dawley, plasma, oral, 20 mg/kg i.g. versus i.v., read-out: absolute oral bioavailability",15.8%
same,AUC(0-inf),[1]; [13],1240 ng·h/mL
same,AUC(0-t),[1]; [13],867 ng·h/mL
same,Tmax,"[1]; both sexes, Sprague Dawley, plasma, iv, 4 mg/kg, 4 mg/kg i.v., mean ± SD, n = 6",0.0333 h
same,half-life,"[1]; both sexes, Sprague Dawley, plasma, iv, 4 mg/kg, 4 mg/kg i.v., mean ± SD, n = 6, read-out: t1/2β",1.14 ± 0.0548 h
same,Tmax,"[1]; both sexes, Sprague Dawley, plasma, iv, 8 mg/kg, 8 mg/kg i.v., mean ± SD, n = 6",0.0333 h
same,half-life,"[1]; both sexes, Sprague Dawley, plasma, iv, 8 mg/kg, 8 mg/kg i.v., mean ± SD, n = 6, read-out: t1/2β",1.11 ± 0.0759 h
same,Tmax,"[1]; both sexes, Sprague Dawley, plasma, iv, 12 mg/kg, 12 mg/kg i.v., mean ± SD, n = 6",0.0333 h
same,half-life,"[1]; both sexes, Sprague Dawley, plasma, iv, 12 mg/kg, 12 mg/kg i.v., mean ± SD, n = 6, read-out: t1/2β",1.16 ± 0.0721 h
same,half-life,"[1]; both sexes, Sprague Dawley, plasma, iv, 12 mg/kg, i.v. dosing at 4, 8 and 12 mg/kg, read-out: half-life t1/2α of intravenous administration",~0.117 h
same,half-life,"[1]; both sexes, Sprague Dawley, plasma, iv, 12 mg/kg, i.v. dosing at 4, 8 and 12 mg/kg, read-out: t1/2β of intravenous administration",~1.15 h
same,Tmax,"[1]; both sexes, Sprague Dawley, plasma, po, 20 mg/kg, 20 mg/kg i.g., mean ± SD, n = 6",~1.5 h
same,half-life,"[1]; both sexes, Sprague Dawley, plasma, po, 20 mg/kg, 20 mg/kg i.g., mean ± SD, n = 6, read-out: t1/2β",1.17 ± 0.0447 h
same,MRT,"[1]; both sexes, plasma, iv, 4 mg/kg i.v., mean ± SD, n = 6",1.52 h
same,MRT,"[1]; both sexes, plasma, iv, 8 mg/kg i.v., mean ± SD, n = 6",1.42 h
same,MRT,"[1]; both sexes, plasma, iv, 12 mg/kg i.v., mean ± SD, n = 6",1.36 h
same,MRT,"[1]; both sexes, plasma, po, 20 mg/kg i.g., mean ± SD, n = 6",4.28 h
same,AUC0–∞,"[1]; 4 mg/kg i.v., mean ± SD, n = 6",68.478 ± 8.167 µg·min/mL
same,V,"[1]; 4 mg/kg i.v., mean ± SD, n = 6",2.096 ± 0.0465 L/kg
same,t1/2α,"[1]; 4 mg/kg i.v., mean ± SD, n = 6",0.1164 ± 0.03832 h
same,V,"[1]; 8 mg/kg i.v., mean ± SD, n = 6",1.906 ± 0.012 L/kg
same,t1/2α,"[1]; 8 mg/kg i.v., mean ± SD, n = 6",0.1185 ± 0.0318 h
same,AUC0–∞,[1]; [14],305.616 ± 17.432 µg·min/mL
same,V,[1]; [14],2.014 ± 0.019 L/kg
same,t1/2α,[1]; [14],0.1174 ± 0.03417 h
same,CL,[1]; [15],0.046 ± 0.013
same,V,[1]; [15],4.881 ± 2.390 L/kg
same,t1/2α,[1]; [15],0.87358 ± 0.032 h
same,t1/2β of intravenous administration,"[1]; i.v. dosing at 4, 8 and 12 mg/kg",about 68 min
same,pharmacokinetic model fit,[1],fit to a two-room model
same,pharmacokinetic model fit,[1]; listed as 10-dehydroxyl-12-demethoxyconophylline,consistent with a two-compartment pharmacokinetic model
same,linear correlation between AUC0→t and dose (r),"[1]; single i.v. dose 4, 8 and 12 mg/kg",0.9821
same,concentration in the brain,[2],kept to a small amount
same,tissue distribution at 5 min,[2]; 5 min,in the heart and kidney were markedly higher than in other tissues
same,tissue distribution at 20 min,[2]; 20 min (equilibrium time),the drug concentration in the lung reached the highest at this time
same,tissue distribution at 45 min,[2]; 45 min (elimination period),mainly distributed in the liver and kidney tissues
same,"tissue distribution, tissues with highest levels","[2]; overall, 8 mg/kg","detected in all examined tissues with the highest in kidney, liver, and lung; also recorded: the distribution in the kidney and lung is the highest"
same,fraction unbound at 1 µg/mL,"[3]; 1.00 µg/mL, equilibrium dialysis, read-out: protein binding degree (converted)",0.181
same,fraction unbound at 2.5 µg/mL,"[3]; 2.50 µg/mL, equilibrium dialysis, read-out: protein binding degree (converted)",0.174
same,fraction unbound at 5 µg/mL,"[3]; 5.00 µg/mL, equilibrium dialysis, read-out: protein binding degree (converted)",0.188
same,fraction unbound,"[3]; rat, three concentrations (1.00, 2.50 and 5.00 µg/mL), summary in abstract, read-out: protein binding degree",< 0.2
same,fraction unbound at 1 µg/mL,[4]; 1.00 µg/mL,0.131
same,fraction unbound at 2.5 µg/mL,[4]; 2.50 µg/mL,0.159
same,fraction unbound at 5 µg/mL,[4]; 5.00 µg/mL,0.153
same,inhibitory activity on HL-60 tumor cell line,[5],significant inhibitory activity
same,inhibitory activity on SMMC-7721 tumor cell line,[6],significant inhibitory activity
same,inhibitory activity on A-549 tumor cell line,[7],significant inhibitory activity
same,inhibitory activity on MCF-7 tumor cell line,[8],significant inhibitory activity
same,inhibitory activity on SW480 tumor cell line,[9],significant inhibitory activity
